Test results reported in US5391800A, “Method for inhibition of cell motility by sphingosine-1-phosphate, its derivatives and mimetics and method of synthesizing sphingosine-1-phosphate and its derivatives” (The Biomembrane Institute, priority 1993, dated 1995).
Entries after “also recorded” stand apart in the source; their conditions may differ.

What was measured:
[1] = system: B16/F10 melanoma cells; test: Phagokinetic activity of B16/F10 melanoma cells on gold sol-coated plates; assay type: cell-based, mouse; conditions: for Cleared area: mean ± S.D., n > 50; for Area cleared by B16/F10 tumor cells: SPN-1-P at 1.0 or 0.1 μM
Procedure: Phagokinetic activity is measured by the ability of cells to ingest foreign particles while moving. […] A uniform coating of gold particles is prepared on glass coverslips precoated with bovine serum albumin, and coverslips are rinsed repeatedly to remove non-adhering or loosely-adhering gold particles. Freshly-prepared neutrophils or tumor cells detached from culture are placed in a Petri dish containing the gold sol-coated plate, and incubated for about 2 hours (for human neutrophils) or about 18 hours (for tumor cells). The coverslips are fixed for 1 hour in a 4% formaldehyde solution in phosphate-buffered saline (PBS) and mounted on microscope slides. The phagokinetic tracks are observed on a television connected to a light microscope (Nikon, Tokyo, Japan). Tracks on the television are transferred to translucent sheets, which are then photocopied. Phagokinetic activity is quantitated by cutting and weighing the swept area in the copy.
A uniform coating of gold particles was prepared on glass coverslips precoated with bovine serum albumin, and the coverslips were rinsed repeatedly to remove non-adhering or loosely-adhering gold particles. Freshly-prepared neutrophils or tumor cells detached from culture were placed in a Petri dish containing the gold sol-coated plate, and incubated for 2 hours (for human neutrophils) or 18 hours (for tumor cells). The coverslips were fixed for 1 hour in 4% formaldehyde solution in phosphate-buffered saline (PBS) and mounted on microscope slides. The phagokinetic tracks were observed on a television connected to a light microscope (Nikon, Tokyo, Japan). Tracks on the television were transferred to translucent sheets, which were then photocopied. Phagokinetic activity was quantitated by cutting and weighing the swept area in the copy.

[2] = system: B16/F1 melanoma cells; test: Growth of B16/F1 melanoma cells (cell count after 48 hr); assay type: cell-based, mouse; conditions: for Growth-inhibitory effect / activity at 10 µM: 10 μM; for Growth-inhibitory effect: B16/F1 cells
Procedure: *Mean ± S.E. (n = 3). For controls (defined as 100%), cell number was
10^5 cells were seeded and
cultured on a 35 mm plastic dish in Dulbecco's modified Eagle's medium
containing 2% fetal bovine serum in the presence or absence of SPN
derivatives. 48 hr later, cells were counted.

[3] = system: B16/F1 cells; test: Uptake and metabolic conversion of 3H-SPN and 14C-TMS in B16/F1 cells; assay type: in vitro ADME, mouse; conditions: for Incorporation into B16/F1 cells: 3H-labeled SPN, 14C-labeled TMS; for Metabolic conversion: B16/F1 cells
From the text: FIGS. 12A and 12B depict the time-course uptake of ^3 H-SPN (FIG. 12A) and ^14 C-TMS (FIG. 12B) by B16/F1 cells. The ordinate represents % radioactivity taken up by B16/F1 cells and the abscissa represents time in hours.
FIGS. 13A-13C depict the time-course changes in labeling of various SPN derivatives after addition of ^3 H-SPN to B16/F1 cells:
FIG. 13A: thin-layer chromatography (TLC) of lipids separated from Folch's lower phase;
FIG. 13B: TLC of lipids separated from Folch's upper phase followed by incubation with ^14 C-TMS and extraction;
FIG. 13C: TLC of lipids separated from Folch's upper phase.
Lane 1, 0 minute. Lane 2, 10 minutes. Lane 3, 30 minutes. Lane 4, 1 hour. Lane 5, 2 hours. Lane 6, 4 hours. Lane 7, 20 hours. CER represents ceramide; CMH represents ceramide monohexoside; PE represents phosphatidyl-ethanolamine; SM represents sphingomyelin; TMS represents N,N,N-trimethylsphingosine; SPN represents sphingosine; SPN-1-P represents sphingosine-1-phosphate; and ORG represents the origin.
In addition, the uptake and metabolic conversion of SPN vs. TMS was investigated. […] Rapid conversion of SPN into sphingosine-1-phosphate is clearly indicated by the appearance of bands corresponding to SPN-1-P prior to conversion into Cer. The SPN-1-P peak appeared after 10 minutes incubation, whereas the Cer peak appeared after 1 hour incubation.

[4] = system: PKC of B16/F1 melanoma cells; test: PKC activity of B16/F1 melanoma cells (32P incorporation into histone IIIS); assay type: biochemical, mouse; conditions: for Inhibitory effect on PKC activity: B16/F1 cells; for % PKC activity: control = 100%, mean ± S.E., n = 3; for PKC inhibition: concentration not given
Procedure: (§1) Effects of SPN derivatives on protein kinase C activity and cell growth of B16/F1 cells was also investigated. […] Toxicity of these compounds to B16/F1 cells and human neutrophils was also examined using a trypan blue exclusion assay after 1 hour incubation with the compounds.
*Mean ± S.E. (n = 3). For controls (defined as 100%), PKC activity was
33225 cpm per tube per 20 min, as measured by ^32 P incorporation int

[5] = Toxicity to B16/F1 melanoma cells, trypan blue exclusion; assay type: cell-based, mouse; conditions: mouse, b16/f1 cells; B16/F1; 50 μM; 1 hour incubation; control 99; read-out: Cell viability (%)
Procedure: as §1

[6] = system: B16/F1 melanoma cells; test: as above; assay type: cell-based, mouse; conditions: for Toxicity: 45-50 μM, B16/F1 cells, 1 hour
Procedure: as §1

[7] = Toxicity to human neutrophils, trypan blue exclusion; assay type: cell-based; conditions: human, neutrophils; neutrophil; 45 μM; 1 hour incubation; control 99; read-out: Cell viability (%)
Procedure: as §1

[8] = system: human neutrophils; test: as above; assay type: cell-based; conditions: 45-50 μM; human neutrophils; 1 hour
Procedure: as §1

[9] = Mus musculus, B16-F10, 1.0 μM, 18 hours, read-out: % of control (CM+) value
[10] = Mus musculus, B16-F1, 48 hr, control = 100%, mean ± S.E., n = 3
[11] = 3H-SPN, in the presence of D-PDMP

Compound: CCCCCCCCCCCCC/C=C/[C@@H](O)[C@@H](N)CO [SPN, sphingosine]
- Cleared area less control (CM-) value ([1]; 1.0 μM, 18 hours): 0.4 × 10^3 μm^2
- Cleared area ([1]; 1.0 μM, 18 hours): 2.5 ± 1.0 × 10^3 μm^2
- activity at 1 µM [1, 9]: 8%
- Area cleared by B16/F10 tumor cells [1]: reduced the area cleared by tumor cells
- Growth-inhibitory effect [2]: moderate growth-inhibitory effect
- activity at 1 µM [2, 10]: 101 ± 1%
- activity at 5 µM [2, 10]: 87 ± 10%
- activity at 10 µM [2, 10]: 78 ± 4%
- Appearance of Cer peak after incubation with SPN [3, 11]: 1 h
- Appearance of SPN-1-P peak after incubation with SPN [3, 11]: 10 min
- Incorporation into B16/F1 cells [3]: rapidly incorporated
- Metabolic conversion [3]: rapidly converted into SPN-1-P and ceramide; also recorded: can be converted to SPN-1-P
- Inhibitory effect on PKC activity ([4]; 75 μM): strong inhibitory effect
- % PKC activity ([4]; 75 μM): 34 ± 7%
- viability at 1 h, 50 µM [5]: 21%
- Toxicity [6]: very toxic
- viability at 1 h, 45 µM [7]: 5%
- Toxicity [8]: very toxic

Compound: CCCCCCCCCCCCC/C=C/[C@@H](O)[C@@H](N)COP(=O)(O)O [SPN-1-P, sphingosine-1-phosphate]
- Cleared area less control (CM-) value ([1]; 0.0001 μM, 18 hours): 3.9 × 10^3 μm^2
- Cleared area ([1]; 0.0001 μM, 18 hours): 6.0 ± 2.7 × 10^3 μm^2
- Cleared area less control (CM-) value ([1]; 0.01 μM, 18 hours): 2.0 × 10^3 μm^2
- Cleared area ([1]; 0.01 μM, 18 hours): 4.1 ± 1.4 × 10^3 μm^2
- Cleared area less control (CM-) value ([1]; 0.1 μM, 18 hours): 1.3 × 10^3 μm^2
- Cleared area ([1]; 0.1 μM, 18 hours): 3.4 ± 1.3 × 10^3 μm^2
- Cleared area less control (CM-) value ([1]; 1.0 μM, 18 hours): 0.3 × 10^3 μm^2
- Cleared area ([1]; 1.0 μM, 18 hours): 2.4 ± 1.1 × 10^3 μm^2
- activity at 0.0001 µM ([1]; Mus musculus, B16-F10, 0.0001 μM, 18 hours, read-out: % of control (CM+) value): 81%
- activity at 0.01 µM ([1]; Mus musculus, B16-F10, 0.01 μM, 18 hours, read-out: % of control (CM+) value): 42%
- activity at 0.1 µM ([1]; Mus musculus, B16-F10, 0.1 μM, 18 hours, read-out: % of control (CM+) value): 27%
- activity at 1 µM [1, 9]: 6%
- Area cleared by B16/F10 tumor cells [1]: greatly reduced
- Growth-inhibitory effect [2]: no growth-inhibitory effect
- activity at 0.01 µM ([2]; Mus musculus, B16-F1, 0.01 μM, 48 hr, control = 100%, mean ± S.E., n = 3): 103 ± 10%
- activity at 0.1 µM ([2]; Mus musculus, B16-F1, 0.1 μM, 48 hr, control = 100%, mean ± S.E., n = 3): 97 ± 5%
- activity at 1 µM [2, 10]: 105 ± 10%
- activity at 5 µM [2, 10]: 96 ± 2%
- activity at 10 µM [2, 10]: 87 ± 10%
- % PKC activity ([4]; 10 μM): 121 ± 10%
- Inhibitory effect on PKC activity ([4]; 75 μM): no inhibitory effect
- % PKC activity ([4]; 75 μM): 108 ± 32%
- PKC inhibition [4]: does not inhibit PKC
- viability at 1 h, 50 µM [5]: 72%
- Toxicity [6]: weak toxicity
- Cytotoxicity, comparison ([6]; concentration not given): far less cytotoxic than SPN, DMS, or TMS
- viability at 1 h, 45 µM [7]: 98%
- Toxicity [8]: weak toxicity

Compound: CCCCCCCCCCCCC/C=C/[C@@H](O)[C@H](CO)[N+](C)(C)C [TMS, N,N,N-trimethylsphingosine]
- Cleared area less control (CM-) value ([1]; 1.0 μM, 18 hours): 3.5 × 10^3 μm^2
- Cleared area ([1]; 1.0 μM, 18 hours): 5.6 ± 2.7 × 10^3 μm^2
- activity at 1 µM [1, 9]: 73%
- Area cleared by B16/F10 tumor cells [1]: reduced the area cleared by tumor cells
- Growth-inhibitory effect [2]: strong
- activity at 1 µM [2, 10]: 88 ± 7%
- activity at 5 µM [2, 10]: 77 ± 8%
- activity at 10 µM [2, 10]: 11 ± 1%
- Incorporation into B16/F1 cells [3]: rapidly incorporated
- Metabolic conversion [3]: unchanged regardless of incubation time; also recorded: cannot be phosphorylated
- Inhibitory effect on PKC activity ([4]; 75 μM): strong inhibitory effect
- % PKC activity ([4]; 75 μM): 16 ± 3%
- PKC inhibition [4]: in striking contrast to DMS and TMS, SPN-1-P does not inhibit PKC
